Series [1] addresses T1, thymidylate synthase (TS) (Mus musculus, UniProt P07607).
T1 construct: [6-3H]FdUMP titration of free TS
Briefly: TS inhibition in murine colon carcinoma tumor CA51 (Tumor 51) after i.p. 5-FU with or without CH2 FH4. Particulars: for Free TS / inhibition at 80 mg/kg: 5-FU 80 mg/kg i.p.; for Free TS: CH2 FH4 27 mg/kg in (6R), not corrected; for inhibition at 80 mg/kg: mouse, ip, baseline total TS 10.00 pmol/g. The series is classed as in vivo. Here is the method: (6R, S)-CH2 FH4 was prepared by the DEAE-cellulose column procedure, described above, using step-elution of the material as previously reported for purification of nucleotides (Moran et al., Proc. Natl. Aca. Sci. USA 76:1456-60 (1979)). […] Because of the high formaldehyde, this solution was over 2 mM in CH2 FH4, with less FH4 present as the solution isomer. After 20 min at room temperature, this solution was applied to a 1×3-cm DEAE-cellulose column; in the last step, the 500 mM NH4HCO3 (pH 8.0) fraction (30 mL) was pooled, lyophilized to dryness, and stored under vacuum in glass ampoules. This fraction contains both diastereomers of CH2 FH4.
On the day of reconstituting the above CH2 FH4, mice bearing subcutaneous murine colon carcinoma Tumor 51 were administered intraperitoneal (i.p.) 5-FU, with or without concomitant i.p. CH2 FH4 by separate injection. The 5-FU was given at a dose of 1.6 mg per mouse, about 80 mg/kg. The CH2 FH4 was given at a dose of 0.5 mL of the 2.4 mM material ([…]), above. The in vivo methodologies were essentially as had previously been described (C. P. Spears, et al., Cancer Res. 42:450-56 (1982)). […] The levels of apparent free TS in tumors of mice receiving CH2 FH4 concomitant with 5-FU were at, or below, that level due to exchange-labeling of endogenous TS-FdUMP-folate ternary complexes in the cytosolic extracts. […] This is exactly the qualitative difference between sensitivity and resistance to 5-FU previously established (see Spears et al., Cancer Res. 42:450-52 (1982)).

Series [2] relates to hepatic colonic carcinoma. Briefly: Tumor weight in rats bearing transplanted hepatic colonic carcinoma. Particulars: Day 17 after transplantation; 30 mg/kg each; average of 3 rats; control 5.84. In kind it is in vivo, rat. From the text: (§1) The present inventors have considerable experience with this model, and the antitumor effects of 5-FU shown are typical results, as are the TS and folate assays of control and 5-FU-only-treated rats. […] In fact, the "free TS" levels in the (6R,S)-FH4 -only-treated rats were the lowest of all arms of the study.
>94% by HPLC). The (6 R,S)FH 4 was weighed, dissolved in normal
saline, and injected daily by tail vein administration using the airfree
Protector device to prevent oxidative destruction of the folate.
(§2) ^b Inoculation of 1 × 10^6 viable colon tumor
(§3) (nitrosoguanidineinduced) cells under the liver capsule on Day 1 (Carlsso
(§4) et al., Anticancer Res. 10:813-16 (1990)). Animals sacrificed on Day 17
(§5) for excision of single liver tumor nodules for pharmacodynamic studies.

The subject of series [3] is TS. Briefly: TS assay in liver tumors of rats bearing transplanted hepatic colonic carcinoma. Particulars: 30 mg/kg each; 24 h after last injection; control 18.96. The series is classed as in vivo, rat.
Description: as §1, §2, §3, §4, §5
(§6) ^d Assays done as described (Spears et al. Adv. Exp. Med. Biol.

The subject of series [4] is 5,10-CH2 FH4 and FH4 levels in liver tumor. The experiment in a line: Folate assay (5,10-CH2 FH4 and FH4) in liver tumors of rats. The series is classed as in vivo, rat. Particulars: 30 mg/kg each, 24 h after last injection.
Description: as §1, §2, §3, §4, §5, §6

Series [5] deals with T1, thymidylate synthase (TS). Particulars: murine colon cancer; cited from earlier work.
Another series has as its target T2, L. casei TS-[3H]FdUMP (Lacticaseibacillus casei, UniProt P00469).
T2 sequence (P00469 1-316): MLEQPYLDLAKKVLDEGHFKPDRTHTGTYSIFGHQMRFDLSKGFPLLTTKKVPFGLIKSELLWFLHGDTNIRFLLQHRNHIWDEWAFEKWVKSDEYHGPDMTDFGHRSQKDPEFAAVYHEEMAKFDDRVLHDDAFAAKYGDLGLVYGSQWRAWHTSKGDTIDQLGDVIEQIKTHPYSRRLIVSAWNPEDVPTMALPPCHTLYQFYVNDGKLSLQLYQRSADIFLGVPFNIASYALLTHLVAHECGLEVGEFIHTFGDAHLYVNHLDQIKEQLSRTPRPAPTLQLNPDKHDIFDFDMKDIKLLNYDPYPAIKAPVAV
Briefly: TS-[3H]FdUMP-folate ternary complex binding assay. The method, then: The CH2 FH4 was prepared as the racemic (6R, S) material from (6R, S)-FH4 and excess formaldehyde, and DEAE-column isolation as described in FIG. 1. This preparation was essentially free of free formaldehyde based on colorimetric assay of bulk material (Nash, Biochem. J. 55:416-21 (1953)).
At all concentrations (total assays volume 150 μl ), excess formaldeyde was required to obtain maximal binding (which was still only 19.3% of stoichiometric binding). A notable effect was the increasing need for formaldehyde addition with increasing dilution, to obtain maximal CH2 FH4 assay recovery.
TS[^3 H]FdUMP-folate ternary complex formation without formaldehyde
addition was 38.5% of the value for the natural (6R)CH2 FH4 wit
6 mM formaldehyde added. (About 1 pmole of parent CH2 FH4 was
^b Only 11.8 ± 7.9% of maximal L. casei TS[^3 H]FdUMP-folate
ternary complex formation (using 6 mM formaldehyde concentration) which i
(§7) The unnatural diastereomer, (6S)-CH2 FH4 prepared by DEAE-column,potassium bicarbonate separation from the natural diasteromer as described in Example 8, was dissolved in 0.2M Tris-HCl buffer, pH 7.0, containing sodium ascorbate (100 mM) and 2-mercaptoethanol. This preparation was from the same lot of material described in Example 8. As noted in the footnote of Table VII, in the absence of supplemental formaldehyde, the yield of dextrancharcoal isolated complex was 38.5% of the value for the natural (6R)-CH2 FH4 (with added 6 mM formaldehyde).

The test system of series [6] is transplanted colon cancer. Briefly: Comparison of natural and unnatural CH2 FH4 diastereomers in rats bearing transplanted colon cancer. The series is classed as in vivo, rat. Particulars: 15 mg/kg, Day 17, no fluorinated pyrimidine. An excerpt:
A study has been completed, for comparison of natural (6R)-CH2 FH4 and unnatural (6S)-CH2 FH4 diastereomers. The preparation of the two forms was done as described by Kisliuk, et al., Cancer Treat. Rep. 61:647-50 (1977), using DEAE-cellulose column chromatography, with elution by potassium bicarbonate buffer. The two separate major peaks were individually pooled, lyophilized to dryness, and used for injection. As in the original detailed description of the method of Kisliuk, et al. (Biochem. 20:929-934), the methylene content was substoichiometric with tetrahydrofolate (FH4). That is, methylene units were present in apparently lower concentration than FH4 concentrations.
Rats bearing the transplanted colon cancer, as described in Example 4 and in Carlsson, et al., Anticancer. Res. 10:813-816, 1991, were treated with either the (6R)-CH2 FH4 or the (6S)-CH2 FH4, formulated and injected according to the methods described in Table IV, except that the injected amounts were 15 mg/kg per dose.
At Day 17, the rats were sacrificed, and the tumors were measured for both volume end weight. Volumes were calculated by the equation for an ellipsoid in revolution, V=(4/3)πab^2 were a=the long diameter/2 and b=the perpendicular short diameter/2.
The filled circles are the weights and volumes of tumors of rats treated with the unnatural (6S)-CH2 FH4 diastereomer (mostly (6R)-FH4 material in dilute solution and blood); the triangles are results for the natural (6R)-CH2 FH4 (mostly (6S)-FH4); and the open circles, control non-treated tumors. It is emphasized here that no fluorinated pyrimidine was used, just the folate injections.

Another series addresses T3, L. casei TS (Lacticaseibacillus casei, UniProt P00469).
T3 construct: spectrophotometric cofactor assay with dUMP
T3 sequence (P00469 1-316): T2 sequence (P00469 1-316)
Briefly: L. casei/dUMP spectrophotometric cofactor assay. The series is classed as biochemical. The method, then: CH2 FH4 as the equal mixture of diastereomers (optical isomers or enantiomers at the C6-position; both diastereomers are of the natural L-configuration at the alpha-carbon position of the glutamate moiety) was prepared from (6R,S)-tetrahydrofolic acid, commercially available from Sigma, in the examples described below. The method of synthesis has been described previously (C. P. Spears and B. Gustavsson, Adv. Exp. Med. Biol. 244:98-104 (1988)). To (6R, S)-tetrahydrofolate (6R, S-FH4) powder, (100 mg) is added 360 μL of 1.0M Na Ascorbate, pH 6.5, 68 μL of 37% (w/w) formaldehyde (CH2 O), and 16 mL phosphate buffer, pH 7.0. A 10-min room temperature incubation allows completion of formation of (6R,S)-CH2 FH4. This material is applied to a DEAE-cellulose column using a modification of a well-known procedure (Kaufman et al., J. Biol. Chem. 238:1498-1500 (1963)). A step elution with NH4 HCO3 buffers of increasing concentration and pH, leads to isolation of CH2 FH4 in the last pooled fraction. […] CH2 FH4, prepared with [^14 C]CH2 O as described previously (Moran et al. Proc. Natl. Acad. Sci. USA 76:1456-60, 1979). […]

Series [7] deals with T4, TS (Homo sapiens, UniProt P04818).
T4 construct: activity of TS in the intact cells; endogenous in cells; host or cells: CCRF-CEM human lymphoblast cells
Briefly: TS activity in intact CCRF-CEM human lymphoblast cells by tritiated water release from [5-3H]deoxyuridine. The series is classed as cell-based. Particulars: for tritiated water production: 48 μM; for remaining activity at 48 µM: read-out: tritiated water production, % of control. The method, then:
as §7
Separate cultures tubes at 37° C. with 1 ml each of CCRF-CEM human lymphoblast cells, 4.6×10^5 cells/ml, in exponential log phase growth were exposed to the unnatural diastereomer, (6R)-FH4 (made up from (6S)-CH2 FH4, 1.56 mM stock solution, with 32 microliters added to each ml of cells), 48 μM final concentration. Cells were incubated for 30, 60, and 120 minutes of drug exposure, prior to addition of [5-^3 H]deoxyuridine (150,000 CPM of approx. 18-20 Ci/mmo. spec. act.) and 10 min. 37° C. incubation prior to 3% charcoal addition for isolation of tritiated water. The amount of tritiated water is proportional to the activity of TS in the intact cells (N. Kundu et al., J. Med. Chem. 33:1975-79 (1990)).

For series [8] the following is noted: humans; cited from earlier work.

Read-outs that look alike come from different tables or passages of the source.

T4 sequence (P04818 whole entry): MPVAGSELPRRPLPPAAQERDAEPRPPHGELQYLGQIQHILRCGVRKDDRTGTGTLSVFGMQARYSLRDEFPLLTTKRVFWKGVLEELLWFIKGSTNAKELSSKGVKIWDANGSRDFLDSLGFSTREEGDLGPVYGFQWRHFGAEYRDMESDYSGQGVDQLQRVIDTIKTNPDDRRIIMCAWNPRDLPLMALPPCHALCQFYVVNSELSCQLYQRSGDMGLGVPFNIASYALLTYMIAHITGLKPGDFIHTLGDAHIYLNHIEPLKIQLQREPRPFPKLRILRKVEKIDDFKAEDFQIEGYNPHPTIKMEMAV
T1 sequence (P07607 whole entry): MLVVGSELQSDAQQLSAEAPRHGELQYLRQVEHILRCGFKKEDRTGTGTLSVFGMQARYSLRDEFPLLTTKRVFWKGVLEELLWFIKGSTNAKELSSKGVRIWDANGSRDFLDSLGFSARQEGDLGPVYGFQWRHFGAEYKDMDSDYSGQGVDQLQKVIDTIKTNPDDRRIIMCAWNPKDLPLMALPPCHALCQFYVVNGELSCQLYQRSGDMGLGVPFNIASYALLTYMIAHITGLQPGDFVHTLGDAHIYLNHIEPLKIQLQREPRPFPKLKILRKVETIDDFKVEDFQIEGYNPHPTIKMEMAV

Regarding `O=c1[nH]cc(F)c(=O)[nH]1` [5-FU, 5-Fluorouracil], the results for the “Free TS” value in [1] (1 h), in [1] (3 h) and in series [1] (6 h) were 1.67 pmol/g, 1.00 pmol/g and 1.27 pmol/g, respectively. For the same molecule, the “TS inhibition, corrected” value in [1] (minimal correction factor of 5%, average / all tumors) worked out at 92%. Further, the inhibition at 80 mg/kg in series [1] (read-out: % Inhibition (TS), 1 h) came out at 83.3%; in series [1] (read-out: % Inhibition (TS), 3 h), 90%; in series [1] (read-out: % Inhibition (TS), 6 h), 87.3%. The same molecule showed a Tumor weight in [2] of 1.03 g. This molecule also gave a TS in the series on TS [3] of 9.03 p mole/g. Further, the “5,10-CH2 FH4” value in series [4] (control 0.69) was 4.11 nmol/g. In series [4] (control 1.18), this molecule gave an FH4 of 2.39 nmol/g. In addition, the “TS inhibition as therapeutic mechanism” value in series [5] is listed as “complete inhibition of TS”.
In the case of `Nc1nc2c(c(=O)[nH]1)N1CN(c3ccc(C(=O)N[C@@H](CCC(=O)O)C(=O)O)cc3)C[C@@H]1CN2` [(6S)-CH2 FH4], the “TS-[3H]FdUMP-ternary complex yield, % of value for natural (6R)-CH2 FH4 with 6 mM formaldehyde” value on L. casei TS-[3H]FdUMP (in the presence of formaldehyde) was determined as 23.3%. Further, on L. casei TS-[3H]FdUMP (without formaldehyde addition), the “TS-[3H]FdUMP-folate ternary complex formation, % of value for natural (6R)-CH2 FH4 with 6 mM formaldehyde” value was determined as 38.5%. The “Tumor volume ± SE” value in [6] (control 7.81) is listed as 0.74. Further, the “Tumor weight ± SE” value in series [6] (control 7.93) is recorded as 2.14. At L. casei TS, the cofactor activity result was “No cofactor activity”. In addition, the tritiated water production at TS [7] (30 min exposure, control 2566) came out at 2004 CPM; on TS [7] (60 min exposure, control 2662), 1750 CPM; at TS [7] (120 min exposure, control 2902) it was 1146 CPM. For the same molecule, the remaining activity at 48 µM on TS [7] (CCRF-CEM, 30 min) came out at 78.1%; on TS [7] (CCRF-CEM, 60 min) it was 65.7%; on TS [7] (CCRF-CEM, 120 min) it was 39.5%. On TS [7] (CCRF-CEM, two hour time point), this molecule returned an inhibition at 48 µM of 60.5%.
For `C=O` [CH2 O, formaldehyde], the “oral LDLo (lowest lethal dose)” value in series [8] was 36 mg/kg.

As a reminder, the inhibition is the share of the control response that was lost under treatment.

The record behind these values is US5376658A, “5,10-methylene-tetrahydrofolate as a modulator of a chemotherapeutic agent” (priority 1993, dated 1994).
